Measurements published in paper PMC4802734 (Cell Chemical Biology, 2016).
“Also recorded” adds a separate entry of the source.

Columns and labels:
PrfAWT = target: T1, PrfAWT (Listeria monocytogenes serovar 1/2a, UniProt P22262); test: Isothermal titration calorimetry (ITC), binding to purified PrfAWT
T1 construct: followed by residues Glu7-N237; vector-derived N-terminal tail […]; (left after thrombin cleavage; inferred from pET28a and Ni-NTA capture), removed by thrombin (N, cleaved yes); made in house; host or cells: E. coli BL21(DE3)

[1] = test system: L. monocytogenes strain EGDe (WT) uptake by HeLa cells; type: cell-based, Listeria monocytogenes; settings: 10 and 1 μM, viable count
Text: (§1) Figure 1 Ring-Fused 2-Pyridones Inhibit L. monocytogenes Uptake by Cultured Cells (A) Relative uptake (%) compared with control as determined by viable count measurements. […] All samples were correlated to the DMSO control (C, gray bar), which was arbitrarily set at 100%. Error bars show SDs. […] See also Figure S1. […] Error bars show SDs.

[2] = test system: LLO and ActA expression in L. monocytogenes; test: Western blot of virulence protein levels (LLO, ActA, PrfA, P60), EGDe; type: cell-based, Listeria monocytogenes; settings: for expression of LLO and ActA (protein): 100 μM; for PrfA expression (protein): across all concentrations
Method: (§2) (D) Compound 2 abrogates intracellular induction of ActA expression. Caco-2 cells were infected with the indicated bacteria and treated 30 min post infection with 100 μM of 2 or the equivalent volume of DMSO (C). Total cellular protein was extracted at indicated time points after addition of compound and subjected to SDS-PAGE. The levels of ActA protein were visualized by western blot using a specific antibody.
A detailed procedure is provided in the Supplemental Experimental Procedures.
concentration of 0.1% DMSO. […] The
incubated on ice for 1 h.
washed in 80% ice cold acetone.
Subsequently the samples were centrifuged and the
added lysozyme and DNase.
secondary antibodies (Dako P0260).

[3] = target: T2, PrfAWT binding to hly-DNA (Listeria monocytogenes serovar 1/2a, UniProt P22262); test: SPR, binding of compound-pre-incubated PrfAWT to hly-promoter DNA; type: biochemical; settings: 200 nM protein, 37°C, read-out: IC50, reduction of binding of PrfAWT to hly-DNA
T2 construct: followed by residues Glu7-N237; vector-derived N-terminal tail […]; (left after thrombin cleavage; inferred from pET28a and Ni-NTA capture), removed by thrombin (N, cleaved yes); made in house; host or cells: E. coli BL21(DE3)

[4] = test system: L. monocytogenes strain F2365 uptake into Caco-2 cells; test: Uptake of L. monocytogenes strain F2365 into Caco-2 cells; type: cell-based, Listeria monocytogenes; settings: 50 μM, 2 hr
Method: Protein extracts were isolated from indicated L. monocytogenes strain in the absence (C, equivalent volume DMSO) or presence of 100 μM of 1 and the specified proteins (LLO PrfA, or P60 (control)) were detected by western blot using specific antibodies. […] (B) Compound 2 inhibits the uptake of an L. monocytogenes strain of serovar 4b. L. monocytogenes strain F2365 was allowed to infect Caco-2 cells for 2 hr with 2 (50 μM). All samples were correlated to the DMSO-treated control (C, gray bar) which was arbitrarily set at 100%. Error bars show SDs.

[5] = test system: L. monocytogenes carrying PrfAWT in Caco-2 cells; test: Time-course infection of Caco-2 cells, strain carrying PrfAWT; type: cell-based, Listeria monocytogenes; settings: viable counts, 50 μM / 100 μM
Text: as §1

[6] = test system: intracellular ActA expression of L. monocytogenes in Caco-2 cells; test: Intracellular ActA levels in infected Caco-2 cells, compound added 30 min post infection; type: cell-based, Listeria monocytogenes; settings: 100 μM added 30 min post infection, 4 hr post infection
Method: as §2
ActA western blotting detection for intracellular bacteria: The collected bacterial pellets were resuspended in 100µl 1x sample buffer (Laemmli, 1970) and lysed by incubation at 98 °C for 20 min. 10µL of each sample was subjected to SDS-PAG and Western blotting using anti-ActA […]
Production of antibodies against ActA was conducted by Agrisera. The antibodies were raised in rabbits, against a peptide mix consisting of Y21T(Kocks et al., 1993) and (NH2-) […]
(-CONH2). The rabbits were immunized four times over a four month period, the first with FCA and the subsequent with FIA. The antisera was recovered 2 weeks after the last immunization.
Infection for determination of intracellular ActA levels
Caco-2 cells were seeded into 24 well plates (Corning #356408) and allowed to grow until confluent. Indicated bacterial strains were grown to OD600 = 1, added to CaCo-2 cells at a MOI of 10, centrifuged for 10 min at 800 g and allowed to infect for 30 minutes. […]

crystal structure = target: the molecule itself; test: crystal structure

O=C(O)[C@@H]1CSc2c(C3CC3)c(Cc3cnc4ccccc4c3)cc(=O)n21 [compound 3]
binding stoichiometry per monomer of homodimeric PrfA (PrfAWT): 1 to 1 | L. monocytogenes uptake relative to untreated controls [1]: consistently failed to attenuate uptake | expression of LLO and ActA (protein) [2]: did not reduce LLO or ActA expression | PrfA expression (protein) [2]: remained unchanged | IC50 [3]: ~30 µM

Cc1ccc(Cc2cc(=O)n3c(c2C2CC2)SC[C@H]3C(=O)O)c2ccccc12 [compound 2]
binding stoichiometry per monomer of homodimeric PrfA (PrfAWT): 1 to 1 | uptake of the F2365 strain into Caco-2 cells [4]: effectively inhibited uptake | replication of L. monocytogenes (PrfAWT) within Caco-2 cells [5]: inability of L. monocytogenes to replicate; also recorded: unable to replicate | L. monocytogenes uptake relative to untreated controls [1]: reducing the level of L. monocytogenes uptake | induction of intracellular ActA levels [6]: weakened in compound-treated cells, although not completely abolished | expression of LLO and ActA (protein) [2]: abolished | PrfA expression (protein) [2]: remained unchanged | concentration down to which LLO and ActA levels were decreased ([2]; dose dependent): ≤ 3.3 µM | IC50 [3]: 6 to 7 µM

B1: PrfA wild type (transcriptional activator PrfA of Listeria monocytogenes) (natural protein)
chain: MNAQAEEFKKYLETNGIKPKQFHKKELIFNQWDPQEYCIFLYDGITKLTSISENGTIMNLQYYKGAFVIMSGFIDTETSVGYYNLEVISEQATAYVIKINELKELLSKNLTHFFYVFQTLQKQVSYSLAKFNDFSINGKLGSICGQLLILTYVYGKETPDGIKITLDNLTMQELGYSSGIAHSSAVSRIISKLKQEKVIVYKNSCFYVQNLDYLKRYAPKLDEWFYLACPATWGKLN
notes: also called PrfAWT; source: purified PrfA protein
stoichiometry N (crystal structure): 2
